{"source": "paper PMC5418314", "about": "“First-in-human phase I study of SOR-C13, a TRPV6 calcium channel inhibitor, in patients with advanced solid tumors” (Investigational New Drugs, 2017)", "test": "peptide degradation in rat plasma", "format": "in vitro ADME", "note": "Ends that are not written are not given here."}
{"sequence": "KEFLHPSKVDLPR [SOR-C13]", "values": [{"measurement": "peptide degradation half-life", "result": "about 1 h"}]}
